Our source for the IC50, AC50 and EC50 values is ChEMBL document CHEMBL1201862, “PubChem BioAssay data set” (2004).

For one assay, the target named is T1, Protein skinhead-1 (Caenorhabditis elegans, UniProt P34707).
T1 sequence (P34707 whole entry): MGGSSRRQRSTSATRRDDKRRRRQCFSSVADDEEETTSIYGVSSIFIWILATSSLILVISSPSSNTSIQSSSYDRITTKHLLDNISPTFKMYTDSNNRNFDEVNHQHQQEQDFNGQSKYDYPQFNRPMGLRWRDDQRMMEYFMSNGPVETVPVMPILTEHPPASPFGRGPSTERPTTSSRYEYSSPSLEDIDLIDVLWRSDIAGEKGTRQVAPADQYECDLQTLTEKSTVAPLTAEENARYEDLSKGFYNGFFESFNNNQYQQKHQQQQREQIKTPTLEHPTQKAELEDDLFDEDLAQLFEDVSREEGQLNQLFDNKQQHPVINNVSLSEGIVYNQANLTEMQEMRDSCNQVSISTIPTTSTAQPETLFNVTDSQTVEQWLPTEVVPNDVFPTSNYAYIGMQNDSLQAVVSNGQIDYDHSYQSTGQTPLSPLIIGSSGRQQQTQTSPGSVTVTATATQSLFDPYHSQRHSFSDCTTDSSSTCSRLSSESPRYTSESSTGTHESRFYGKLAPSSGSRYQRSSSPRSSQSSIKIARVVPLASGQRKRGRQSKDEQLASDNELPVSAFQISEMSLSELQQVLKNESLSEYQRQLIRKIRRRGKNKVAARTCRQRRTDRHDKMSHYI
The assay is classed as functional.

The test system of the next assay is INS1. Put plainly: beta cell apoptosis inhibitors, cytokine rescue, dose response, luminescence, retest (AID 449756).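 Further: cell death triggered by IL-1 beta plus TNF-alpha plus IFN-gamma mixture; protective hits raise ATP signal compared with cytokine alone wells.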 It counts as functional, cell-based. As to conditions: Rattus norvegicus.
Assay [1] has as its target T2, Polyadenylate-binding protein 1 (Homo sapiens, UniProt P11940). In words: PABP1 MLLE–PAM2 interaction inhibitors, dose response, miRNA deadenylation inhibitor project, biochemical, fluorescence polarization, Cy5-PAM2 peptide, secondary (AID 602260). It counts as functional. As to conditions: read-out: IC50_Mean. In general terms: In fluorescence polarisation assays a small probe gives low polarisation when free and higher when bound to something large.

For assay [2], the target named is T2, Polyadenylate-binding protein 1. Put plainly: PABP1 MLLE–PAM2 binding inhibitor potency, dose response, biochemical, fluorescence polarization, FITC-PAM2 peptide (AID 602259). The note with it: read-out: IC50_Mean. It counts as functional.
Assay [3] can be described thus: cytotoxicity toward NIH3T3 fibroblasts, dose response, counter-screen, cell-based, ATP luminescence, mouse fibroblasts (AID 2010).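 Further: cells exposed to compound for about 90 hours before reading.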 The assay is classed as functional.
The target in assay [4] is T3, Ubiquitin-conjugating enzyme E2 N (Homo sapiens, UniProt P61088).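 Further: Dose-response confirmation in a TR-FRET assay detecting UBC13-driven polyubiquitin chain formation, inhibition measured.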
T3 sequence (P61088 whole entry): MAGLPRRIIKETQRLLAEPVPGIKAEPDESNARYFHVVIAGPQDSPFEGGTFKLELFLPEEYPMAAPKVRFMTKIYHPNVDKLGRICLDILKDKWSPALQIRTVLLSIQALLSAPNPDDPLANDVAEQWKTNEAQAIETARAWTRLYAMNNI
The assay is classed as functional.

Assay [5] is described as follows: inhibitors of intracellular T. cruzi replication, confirmation, NIH3T3 host cells, beta-gal luminescence (AID 2044).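 Further: intracellular parasites grown in NIH/3T3 mouse fibroblasts as host cells; luminescent beta-galactosidase reporter signal from transgenic T. cruzi replicating inside host cells; inhibitors lower the luminescence signal.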 It counts as functional, cell-based.
Another assay addresses Paired box protein Pax-8 (Homo sapiens, UniProt Q06710). Put plainly: inhibitors of PAX8-driven TPO luciferase reporter, dose response, RMG-I cells, cherry-pick (AID 687027).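 Further: luciferase reporter driven by Pax8 target thyroperoxidase promoter measured by SteadyGlo luminescence.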 It counts as functional, cell-based. (In a reporter assay the amount or activity of a reporter protein is the signal.)
Assay [6] addresses T4, Zinc finger protein mex-5 (Caenorhabditis elegans, UniProt Q9XUB2).
T4 sequence (Q9XUB2 whole entry): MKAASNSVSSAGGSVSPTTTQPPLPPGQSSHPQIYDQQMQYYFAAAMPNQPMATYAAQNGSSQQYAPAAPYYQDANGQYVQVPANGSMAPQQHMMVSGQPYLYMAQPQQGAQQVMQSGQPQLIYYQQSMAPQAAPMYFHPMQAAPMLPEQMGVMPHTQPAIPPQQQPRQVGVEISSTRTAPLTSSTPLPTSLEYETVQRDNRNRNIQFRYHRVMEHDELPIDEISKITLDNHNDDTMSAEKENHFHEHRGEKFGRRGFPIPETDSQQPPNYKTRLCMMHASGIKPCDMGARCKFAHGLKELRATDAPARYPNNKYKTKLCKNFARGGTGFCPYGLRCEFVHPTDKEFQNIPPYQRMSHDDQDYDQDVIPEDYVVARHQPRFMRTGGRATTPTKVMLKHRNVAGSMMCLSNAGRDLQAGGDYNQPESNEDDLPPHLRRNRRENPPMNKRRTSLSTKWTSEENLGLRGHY
Put plainly: MEX-5/TCR-2 RNA interaction inhibitors, dose response, biochemical, C. elegans, fluorescence polarization (AID 1960).

The target in assay [7] is T5, RNA-binding protein pos-1 (Caenorhabditis elegans, UniProt G5EF15).
T5 sequence (G5EF15 whole entry): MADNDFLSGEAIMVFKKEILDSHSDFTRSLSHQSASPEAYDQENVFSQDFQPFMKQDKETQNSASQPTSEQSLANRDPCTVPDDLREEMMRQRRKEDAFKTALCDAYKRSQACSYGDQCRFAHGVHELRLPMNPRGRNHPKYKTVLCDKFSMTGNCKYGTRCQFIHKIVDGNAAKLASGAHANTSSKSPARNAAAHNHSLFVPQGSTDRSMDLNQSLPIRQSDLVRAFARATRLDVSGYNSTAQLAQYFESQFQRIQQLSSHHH
In words: inhibitors of POS-1/mex-3 RNA binding, dose response, biochemical, fluorescence polarization (AID 1964).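 Further: purified POS-1 fused to maltose binding protein made in E. coli; potency of compounds blocking POS-1 binding to fluorescent RNA.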

Assay [8] concerns the target T6, Heat shock factor protein 1 (Mus musculus, UniProt P38532).
T6 sequence (P38532 whole entry): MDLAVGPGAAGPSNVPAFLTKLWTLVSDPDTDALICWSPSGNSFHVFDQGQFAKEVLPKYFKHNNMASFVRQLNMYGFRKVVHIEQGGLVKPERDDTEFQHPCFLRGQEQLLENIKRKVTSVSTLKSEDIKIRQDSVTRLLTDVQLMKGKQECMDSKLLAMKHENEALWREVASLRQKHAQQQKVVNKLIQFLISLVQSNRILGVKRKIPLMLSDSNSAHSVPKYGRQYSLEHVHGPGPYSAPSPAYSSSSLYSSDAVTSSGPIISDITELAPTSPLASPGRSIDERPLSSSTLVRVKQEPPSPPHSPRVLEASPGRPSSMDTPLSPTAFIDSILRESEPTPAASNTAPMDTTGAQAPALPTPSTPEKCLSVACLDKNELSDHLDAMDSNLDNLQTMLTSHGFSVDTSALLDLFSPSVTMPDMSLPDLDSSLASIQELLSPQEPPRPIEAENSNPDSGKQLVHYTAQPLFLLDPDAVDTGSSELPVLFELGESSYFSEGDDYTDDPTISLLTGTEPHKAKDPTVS
In words: HSF1 potentiators in luciferase reporter cells, confirmation, cell-based, NIH3T3, luminescence, dose retest (AID 435004).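 Further: stress induced by proteasome inhibitor MG132 added 30 min after compound; luciferase reporter driven by HSF1 response element in NIH3T3 cells; actives raise luminescence as potentiators of the MG132 stress response.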 It counts as functional.

Assay [9] addresses T6, Heat shock factor protein 1. Put plainly: inhibition of MG132-induced HSE-luciferase signal, confirmation, cell-based, NIH3T3, luminescence, dose retest (AID 2382).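 Further: NIH3T3 fibroblasts with HSF1-driven luciferase reporter stressed by proteasome inhibitor MG132; luminescence from HSF1-driven luciferase expression after 8 hours of MG132 stress.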 The assay is classed as functional.
A short description of assay [10]: Luminescence Cell-Based Dose Retest to Confirm Inhibitors of Cancer Stem Cells. [Related pubchem assays (depositor defined):AID2717, AID2721]. It counts as functional. As to conditions: Homo sapiens.

Activity calls are given as the source filed them.

T2 sequence (P11940 whole entry): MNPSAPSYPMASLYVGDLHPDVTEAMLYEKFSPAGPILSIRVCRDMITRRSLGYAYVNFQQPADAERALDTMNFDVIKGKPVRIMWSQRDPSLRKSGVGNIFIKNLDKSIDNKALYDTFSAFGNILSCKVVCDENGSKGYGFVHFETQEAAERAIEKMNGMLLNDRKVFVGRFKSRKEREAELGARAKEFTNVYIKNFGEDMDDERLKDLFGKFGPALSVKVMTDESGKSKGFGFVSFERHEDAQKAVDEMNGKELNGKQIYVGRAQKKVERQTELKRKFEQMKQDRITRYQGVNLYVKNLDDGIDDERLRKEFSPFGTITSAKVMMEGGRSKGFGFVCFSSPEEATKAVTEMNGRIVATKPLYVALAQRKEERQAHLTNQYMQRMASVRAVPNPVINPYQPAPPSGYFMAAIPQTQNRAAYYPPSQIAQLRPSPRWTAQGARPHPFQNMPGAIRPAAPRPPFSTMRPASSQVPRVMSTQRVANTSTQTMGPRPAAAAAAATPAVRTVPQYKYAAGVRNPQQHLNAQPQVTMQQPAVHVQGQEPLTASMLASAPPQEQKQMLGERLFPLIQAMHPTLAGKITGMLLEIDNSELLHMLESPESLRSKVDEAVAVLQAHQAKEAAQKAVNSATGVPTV
Chain of Paired box protein Pax-8 (Q06710 whole entry): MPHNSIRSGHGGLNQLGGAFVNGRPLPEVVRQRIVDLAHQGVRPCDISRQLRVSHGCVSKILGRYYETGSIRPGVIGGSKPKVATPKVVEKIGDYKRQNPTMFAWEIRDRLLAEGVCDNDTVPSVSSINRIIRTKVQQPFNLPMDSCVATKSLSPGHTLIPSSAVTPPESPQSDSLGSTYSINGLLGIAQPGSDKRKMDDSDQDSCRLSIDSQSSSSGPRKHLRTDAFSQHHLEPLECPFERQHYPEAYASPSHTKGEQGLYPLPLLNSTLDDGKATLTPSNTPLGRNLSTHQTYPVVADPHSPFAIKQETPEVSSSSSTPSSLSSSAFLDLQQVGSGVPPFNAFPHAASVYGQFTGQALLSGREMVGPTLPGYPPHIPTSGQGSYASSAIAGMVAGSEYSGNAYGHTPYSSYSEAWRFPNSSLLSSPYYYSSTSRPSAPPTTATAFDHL

As for `Oc1cc(-c2ccccc2Cl)c2c(n1)CCC2`, the IC50 on Protein skinhead-1 is > 100 µM (inactive). A word on the AC50: it is the concentration at which the activity in the assay is half-maximal. For the compound `CC(C)(C)n1nc2c3c(ccc2c1O)C(=O)c1ccccc1C3=O`, the AC50 in the assay with INS1 is 2.98 µM (active).

`O=C(Nc1nc(SCc2ccc(F)cc2)ns1)c1ccco1`: the IC50 at Protein skinhead-1 was 70.5 µM (inactive). In the case of `Fc1ccc(F)c(C2=NN=C(NCC3CCCO3)SC2)c1` (stereo not drawn), the IC50 in assay [1] and in assay [2] was > 66 µM (inactive) in each case.

On to `Cc1cccc(C(=O)Nc2ccc(C(=O)/C=C/c3cccs3)cc2)c1`, for which the IC50 at Protein skinhead-1 was > 100 µM (inactive).

Consider `O=C1CN(C(=O)c2ccc(Br)o2)C(c2ccccc2)c2cc(Br)ccc2N1` (stereo not drawn), for which the IC50 on Protein skinhead-1 is 83.6 µM (inactive). As usually defined, the EC50 is the concentration giving half of the maximal effect. In the case of `Oc1[nH]c2ccc(Br)cc2c1N=NC(S)=NCC1CCCO1` (stereo not drawn), the EC50 in assay [3] was > 60 µM (not active); in [5], 2.17 µM (active). Also, in assay [4], the IC50 was > 20 µM (inactive). `Cc1ccc(S(=O)(=O)Nc2ccc3c(c2)C(=O)N([C@@H](C)CO)C[C@H](C)[C@@H](CN(C)C(=O)Nc2ccc(C(F)(F)F)cc2)OCCCC[C@H](C)O3)cc1`: the AC50 at Paired box protein Pax-8 is 3.14 µM (active). As for `C[C@@H]1CCCCO[C@H](CN(C)C(=O)Nc2ccc(C(F)(F)F)cc2)[C@@H](C)CN([C@@H](C)CO)C(=O)c2cc(NS(=O)(=O)c3cccs3)ccc2O1`, the AC50 at Paired box protein Pax-8 is 6.63 µM (active). Take `O=C(Nc1cc[n+](-c2nc3ccccc3nc2[N-]S(=O)(=O)c2ccccc2)cc1)c1ccccc1Cl`: the concentration for a half-maximal effect (EC50) in [6] is 32.7 µM (active); in assay [7], > 300 µM (not active). Regarding `C=CCSc1nnc(N2C(=O)C(O)=C(C(=O)c3ccco3)C2c2ccc(F)cc2)s1` (stereo not drawn), the EC50 in assay [6] was 87.6 µM (active); in assay [8], > 260 µM (inactive); in assay [7], 114 µM (active). For the compound `COCCCNC(=O)c1cn(CC(C)C)c(=O)c2c1c1ccccc1n2C`, at Protein skinhead-1, the IC50 is > 100 µM (inactive). Moreover, in assay [9], the half-maximal effective concentration (EC50) is listed as > 195 µM (not active). As to `CCOc1ccc(N2C(=O)CC(Sc3ccccc3C(=O)O)C2=O)c([N+](=O)[O-])c1` (stereo not drawn), the IC50 in [1] and in assay [2] was > 66 µM (inactive) each time. As for `Cc1cc(C)c(O)c(NC(=S)NC(=O)Cc2ccccc2)c1`, the IC50 in assay [1] and in [2] was > 66 µM (inactive) each time. `N=C(N)NC(=N)Nc1ccc(SC(F)(F)F)cc1`: the AC50 with INS1 was 1.72 µM (active). With `O=C(Nc1cc(=O)[nH]c2ncnn12)c1ccc(Cl)cc1Cl`, the half-maximal effective concentration (EC50) is 20.5 µM (inconclusive) in [6] and 43.5 µM (inconclusive) in [7]. Regarding `COc1ccc(N2C(=O)/C(=C/c3ccc(N(C)C)o3)C(=O)NC2=S)cc1`, the EC50 in assay [6] is > 150 µM (inconclusive); in assay [7], > 300 µM (not active). On to `Cc1cccn2c(Nc3ccccc3)c(-c3ccccn3)nc12`, for which, in the assay on INS1, the AC50 is 5.84 µM (active).

As to `Cc1ccccc1/N=C1\N=C(N)c2ccccc21`, the half-maximal activity concentration (AC50) at Paired box protein Pax-8 was 17.3 µM (active). On to `O=C(Nc1ccc(Cl)cc1)C(c1ccccc1)N(CCO)CCO` (stereo not drawn), for which, at Protein skinhead-1, the IC50 was > 100 µM (inactive). `O=C(Nc1ccc(-c2csc(Nc3cccc(C(F)(F)F)c3)n2)cc1)c1cc([N+](=O)[O-])cc(C(F)(F)F)c1`: the concentration at half-maximal activity (AC50) is 7.89 µM (active) in the assay on INS1 and 1.4 µM (active) in assay [10].

Regarding `Cc1cc(/C=C2\C(=O)NC(=O)N(C)C2=O)c(C)n1-c1ccc2c(c1)OCO2`, the EC50 in assay [6] and in assay [7] was > 300 µM (not active) in each case. As to `COc1ccc(COCC(O)CN2CCC(CN3C(=O)c4cccc5cccc(c45)C3=O)CC2)cc1OC` (stereo not drawn), the IC50 in assay [4] is > 20 µM (inactive). For the compound `CCOC(=O)Nc1nc(-c2ccc(F)cc2F)cs1`, the IC50 at Protein skinhead-1 was 64.9 µM (inactive). In the case of `CCCCN(C)C(=O)c1cccc(OC2CCN(CC(C)(C)C)CC2)c1`, the EC50 in assay [6] is > 300 µM (inconclusive); in assay [7] it was > 300 µM (not active).

Regarding `COc1ccc(N2C(=O)NC(=O)/C(=C/c3ccc4c(c3)Cc3ccccc3-4)C2=O)cc1`, the EC50 in [6] and in assay [7] was > 300 µM (not active) each time. For the compound `Brc1ccc(-c2nc(-c3cccnc3)no2)o1`, the IC50 at Protein skinhead-1 was 42.7 µM (active). On to `O=C(Nc1ccccc1)NC1(C(=O)NCc2ccc3c(c2)OCO3)CCCCC1`, for which the EC50 in assay [6] and in assay [7] was > 300 µM (not active) throughout. `COc1ccc(CNC(=O)c2cnc3cc(C)ccn3c2=O)cc1`: the EC50 in assay [6] and in [7] was > 300 µM (not active) throughout.

Turning to `CCOc1c(C=C(C#N)C#N)c2ccccc2n1CC`, the EC50 in [6] and in assay [7] was > 300 µM (not active) each time. In the case of `COc1cccc(/C=N/NC(=O)c2ccc(N3CCCC3=O)cc2)c1`, at Paired box protein Pax-8, the concentration at half-maximal activity (AC50) was < 0.26 µM (active). Consider `CCOc1cc(C2C3=C(CCCC3=O)N(CC(=O)O)C3=C2C(=O)CCC3)ccc1OC`, for which the IC50 in assay [1] and in assay [2] was > 66 µM (inactive) throughout. For the compound `COc1ccccc1-c1ccc2c(c1)[C@H]1[C@H](CCN1S(=O)(=O)c1ccccc1F)[C@H](CO)N2`, on Paired box protein Pax-8, the AC50 was 8.48 µM (active). Regarding `N=C(S)C(c1ccccc1)c1ncc(C(F)(F)F)cc1Cl` (stereo not drawn), the IC50 in assay [1] and in assay [2] was > 66 µM (inactive) each time. Regarding `COCCNC(=O)c1ccc(-c2ccc(OC)cc2C)c2ccoc12`, the IC50 on Protein skinhead-1 is > 100 µM (inactive). Regarding `Cc1nnc(N2C(=O)C(O)=C(C(=O)c3ccco3)C2c2cccc3ccccc23)s1` (stereo not drawn), the EC50 in [6] and in assay [7] was > 300 µM (not active) in each case. On to `COc1cccc(N(C(=O)c2snc(C(N)=O)c2N)C(C(=O)NCC2CCCO2)c2c[nH]c3ccccc23)c1` (stereo not drawn), for which the IC50 in [4] is > 20 µM (inactive).
